Experiment: UV absorbance (UV spectra), sunscreen properties
Format: physicochemical
Excerpt: FIG. 1 through 8 show UV spectra of 111 compounds sharing PABA “hot building block”, their 16 synthetic intermediates, and one compound with salicylic acid building block. Reference numerals identify compounds according to the numbering adopted in the Experimental section and elsewhere in the specification.
UV-B (290-320 nm) radiation is known to be harmful for human skin. Acute negative effects include inflammation, sunburns, pigmentation changes and hyperplasia. Chronic negative effects include photoaging, immunosuppression and photocarcinogenesis, including squamous cells, basal cells and melanoma skin cancer. The UV-B radiation is also responsible for 98% of cases of delayed erythema development.
Various sunscreen agents have been developed to protect human skin from this harmful UV-B radiation. One known class of such UV-B sunscreen agents is PABA and its various derivatives. Their UV-protecting properties are due to their strong UV absorbance (e266=15,000 for p-aminobenzoic acid). […] As such, these compounds are useful as sunscreen agents.

UV absorbance e266: 15,000
Structure (SMILES): Nc1ccc(C(=O)O)cc1 [Compound (59), 4-Aminobenzoic acid]
